The record followed here is paper PMC6982053, “GABAA Receptor Ligands Often Interact with Binding Sites in the Transmembrane Domain and in the Extracellular Domain—Can the Promiscuity Code Be Cracked?” (International Journal of Molecular Sciences, 2020).

This assay addresses T1, GABAA receptor α1β1 (β1 subunit) (Rattus norvegicus, UniProt P15431+P62813).
T1 construct: gene Gabrb1; rat α1β1 expressed in Xenopus laevis oocytes; with GABAA receptor α1 subunit
The assay can be described thus: two-electrode voltage clamp, modulation of GABA EC3-5 current (low efficacy). It is filed as cell-based. In general terms: Two-electrode voltage clamp is typically applied to oocytes expressing channels or transporters.

T1 sequence (P15431 26-474): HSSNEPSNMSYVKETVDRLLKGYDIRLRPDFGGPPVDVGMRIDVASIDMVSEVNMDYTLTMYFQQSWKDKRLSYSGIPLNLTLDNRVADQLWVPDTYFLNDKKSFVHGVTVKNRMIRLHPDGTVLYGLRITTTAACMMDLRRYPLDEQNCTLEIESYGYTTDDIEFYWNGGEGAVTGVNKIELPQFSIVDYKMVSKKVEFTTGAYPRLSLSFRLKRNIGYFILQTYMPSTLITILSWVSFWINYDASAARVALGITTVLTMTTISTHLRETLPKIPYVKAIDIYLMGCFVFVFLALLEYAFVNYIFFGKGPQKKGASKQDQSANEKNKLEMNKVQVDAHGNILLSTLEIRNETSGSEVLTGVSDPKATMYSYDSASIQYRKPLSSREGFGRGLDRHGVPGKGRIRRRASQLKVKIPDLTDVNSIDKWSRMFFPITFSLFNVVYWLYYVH
T1 sequence (P62813 28-455): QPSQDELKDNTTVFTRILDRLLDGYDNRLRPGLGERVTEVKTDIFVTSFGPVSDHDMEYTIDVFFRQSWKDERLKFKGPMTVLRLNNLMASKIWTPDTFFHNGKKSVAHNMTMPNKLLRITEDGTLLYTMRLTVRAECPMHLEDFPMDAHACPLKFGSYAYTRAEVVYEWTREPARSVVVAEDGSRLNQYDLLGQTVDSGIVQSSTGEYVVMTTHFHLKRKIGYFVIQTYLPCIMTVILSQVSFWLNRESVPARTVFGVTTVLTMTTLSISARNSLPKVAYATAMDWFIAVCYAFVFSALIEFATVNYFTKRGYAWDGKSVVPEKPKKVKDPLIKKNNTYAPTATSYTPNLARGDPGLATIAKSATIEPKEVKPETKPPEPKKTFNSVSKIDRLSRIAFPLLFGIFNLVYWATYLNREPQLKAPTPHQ

A word on the EC50: it is the concentration at which the effect is half-maximal. Take `O=C(O)c1[nH]c2ccc(Cl)cc2c1/N=N/c1ccc(Br)cc1` [MTI163, (E)-3-((4-bromophenyl)diazenyl)-5-chloro-1H-indole-2-carboxylic Acid]: the EC50 turned out to be 7.65 µM.
